Measured values taken from PubChem BioAssay AID256 (DTP/NCI, 2004).
Toxic doses and inconclusive results are not listed. How the source made its calls: active means survival T/C of 150% or more; inactive means T/C below 125% in these data.

Test system: CD2F1 mice, L1210 leukemia ip, survival T/C
Assay: NCI In Vivo Anticancer Drug Screen. Data for tumor model L1210 Leukemia (intraperitoneal) in CD2F1 (CDF1) mice
Conditions: higher = longer survival
In short: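 Ratio T/C, where T is the treated-group value and C the vehicle-dosed control value, from mice implanted with a transplantable tumor.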

[1] = endpoint: mean survival time, dose: 100.0 mg/kg/injection, schedule: Q04DX003 (ip), vehicle: saline with Tween-80
[2] = endpoint: mean survival time, dose: 200.0 mg/kg/injection, schedule: Q04DX003 (ip), vehicle: saline with Tween-80
[3] = endpoint: mean survival time, dose: 400.0 mg/kg/injection, schedule: Q04DX003 (ip), vehicle: saline with Tween-80
[4] = endpoint: mean survival time, dose: 75.0 mg/kg/injection, schedule: Q01DX001 (ip), vehicle: saline
[5] = endpoint: mean survival time, dose: 12.5 mg/kg/injection, schedule: Q01DX009 (ip), vehicle: other
[6] = endpoint: mean survival time, dose: 25.0 mg/kg/injection, schedule: Q01DX009 (ip), vehicle: other
[7] = endpoint: mean survival time, dose: 100.0 mg/kg/injection, schedule: Q01DX009 (ip), vehicle: other
[8] = endpoint: mean survival time, dose: 200.0 mg/kg/injection, schedule: Q01DX009 (ip), vehicle: other
[9] = endpoint: mean survival time, dose: 100.0 mg/kg/injection, schedule: Q01DX001 (ip), vehicle: saline with Tween-80
[10] = endpoint: mean survival time, dose: 200.0 mg/kg/injection, schedule: Q01DX001 (ip), vehicle: saline with Tween-80
[11] = endpoint: mean survival time, dose: 400.0 mg/kg/injection, schedule: Q01DX001 (ip), vehicle: saline with Tween-80
[12] = endpoint: mean survival time, dose: 100.0 mg/kg/injection, schedule: Q01DX009 (ip), vehicle: Klucel (hydroxypropylcellulose) (HPC)
[13] = endpoint: mean survival time, dose: 200.0 mg/kg/injection, schedule: Q01DX009 (ip), vehicle: Klucel (hydroxypropylcellulose) (HPC)
[14] = endpoint: mean survival time, dose: 100.0 mg/kg/injection, schedule: Q01DX009 (ip), vehicle: saline with Tween-80
[15] = endpoint: mean survival time, dose: 200.0 mg/kg/injection, schedule: Q01DX009 (ip), vehicle: saline with Tween-80
[16] = endpoint: mean survival time, dose: 400.0 mg/kg/injection, schedule: Q01DX009 (ip), vehicle: saline with Tween-80
[17] = endpoint: mean survival time, dose: 100.0 mg/kg/injection, schedule: Q04DX002 (ip), vehicle: saline with Tween-80
[18] = endpoint: mean survival time, dose: 200.0 mg/kg/injection, schedule: Q04DX002 (ip), vehicle: saline with Tween-80
[19] = endpoint: mean survival time, dose: 400.0 mg/kg/injection, schedule: Q04DX002 (ip), vehicle: saline with Tween-80
[20] = endpoint: median survival time, dose: 50.0 mg/kg/injection, schedule: Q01DX005 (ip), vehicle: saline with Tween-80
[21] = endpoint: median survival time, dose: 100.0 mg/kg/injection, schedule: Q01DX005 (ip), vehicle: saline with Tween-80
[22] = endpoint: median survival time, dose: 200.0 mg/kg/injection, schedule: Q01DX005 (ip), vehicle: saline with Tween-80

Measured: T/C

CCOC(=O)C(C(=O)OCC)C1CCS(=O)(=O)C1 (stereo unspecified)
inactive: [1] 95 % of control | [2] 97 % of control | [3] 95 % of control

CC(C)CCOC(=O)Nc1cccc(O)c1
inactive: [1] 98 % of control | [2] 100 % of control | [3] 101 % of control

Cc1ccc(N/C=C\c2cc[n+](C)cc2)nc1
inactive: [4] 103 % of control | endpoint: mean survival time, dose: 150.0 mg/kg/injection, schedule: Q01DX001 (ip), vehicle: saline 106 % of control | endpoint: mean survival time, dose: 300.0 mg/kg/injection, schedule: Q01DX001 (ip), vehicle: saline 105 % of control

CCCC1(CCC)c2ccccc2C(Cl)(CCl)c2ccccc21
inactive: [5] 88 % of control | [6] 94 % of control | endpoint: mean survival time, dose: 50.0 mg/kg/injection, schedule: Q01DX009 (ip), vehicle: other 92 % of control | [7] 94 % of control | [8] 86 % of control

O=C(Cc1cccc([N+](=O)[O-])c1)Nc1cccc(S(=O)(=O)F)c1
inactive: [9] 96 % of control | [10] 95 % of control | [11] 96 % of control

CCOC(=O)C1(C(=O)O)CC2C(C)C=CC(C)C2C1 (stereo unspecified)
inactive: [12] 100 % of control | [13] 102 % of control | endpoint: mean survival time, dose: 400.0 mg/kg/injection, schedule: Q01DX009 (ip), vehicle: Klucel (hydroxypropylcellulose) (HPC) 96 % of control

COc1cc(NC(C)CCCN)c2ncccc2c1 (stereo unspecified)
inactive: endpoint: mean survival time, dose: 12.5 mg/kg/injection, schedule: Q01DX009 (ip), vehicle: saline sonified 102 % of control | endpoint: mean survival time, dose: 12.5 mg/kg/injection, schedule: Q04DX003 (ip), vehicle: saline with Tween-80 104 % of control | endpoint: mean survival time, dose: 25.0 mg/kg/injection, schedule: Q01DX009 (ip), vehicle: saline sonified 97 % of control | endpoint: mean survival time, dose: 25.0 mg/kg/injection, schedule: Q04DX003 (ip), vehicle: saline with Tween-80 93 % of control | endpoint: mean survival time, dose: 50.0 mg/kg/injection, schedule: Q01DX009 (ip), vehicle: saline sonified 102 % of control | endpoint: mean survival time, dose: 50.0 mg/kg/injection, schedule: Q04DX003 (ip), vehicle: saline with Tween-80 101 % of control

Cc1ccc(C)c(C(=O)c2ccccc2C(N)=O)c1
inactive: endpoint: mean survival time, dose: 50.0 mg/kg/injection, schedule: Q01DX009 (ip), vehicle: saline with Tween-80 94 % of control | [14] 92 % of control | [15] 88 % of control

CC1CC(NC(=S)NC(=O)c2ccccc2Cl)CC(C)(C)C1 (stereo unspecified)
inactive: [14] 86 % of control | [15] 86 % of control | [16] 86 % of control

O=C(COc1ccc(F)cc1)OCCO
inactive: [17] 105 % of control | [18] 101 % of control | [19] 105 % of control

COc1nc(NC2OCC(O)C(O)C2O)c(Br)c(=O)n1C (stereo unspecified)
inactive: endpoint: median survival time, dose: 12.5 mg/kg/injection, schedule: Q01DX005 (ip), vehicle: saline with Tween-80 100 % of control | endpoint: median survival time, dose: 25.0 mg/kg/injection, schedule: Q01DX005 (ip), vehicle: saline with Tween-80 101 % of control | [20] 101 % of control | [21] 101 % of control | [22] 101 % of control

CC(C#N)(Nc1ccccc1)c1ccco1 (stereo unspecified)
inactive: endpoint: mean survival time, dose: 6.25 mg/kg/injection, schedule: Q01DX009 (ip), vehicle: other 102 % of control | endpoint: mean survival time, dose: 6.25 mg/kg/injection, schedule: Q04DX003 (ip), vehicle: other 94 % of control | [5] 100 % of control | endpoint: mean survival time, dose: 12.5 mg/kg/injection, schedule: Q04DX003 (ip), vehicle: other 95 % of control | [6] 94 % of control | endpoint: mean survival time, dose: 25.0 mg/kg/injection, schedule: Q04DX003 (ip), vehicle: other 106 % of control | [7] 90 % of control | endpoint: mean survival time, dose: 100.0 mg/kg/injection, schedule: Q04DX003 (ip), vehicle: saline 103 % of control | [8] 94 % of control | endpoint: mean survival time, dose: 200.0 mg/kg/injection, schedule: Q04DX003 (ip), vehicle: saline 101 % of control | endpoint: mean survival time, dose: 400.0 mg/kg/injection, schedule: Q04DX003 (ip), vehicle: saline 94 % of control

CCOC(=O)C1=C(C)NC(C)=C(C(=O)OCC)C1c1ccccn1
inactive: endpoint: mean survival time, dose: 50.0 mg/kg/injection, schedule: Q01DX009 (ip), vehicle: Klucel (hydroxypropylcellulose) (HPC) 94 % of control | [12] 91 % of control | [13] 89 % of control

CCCCCCCCCCCCCCOc1ccc(Cl)cc1
inactive: [17] 87 % of control | [18] 87 % of control

C1C2OC2CC2OC12 (stereo unspecified)
inactive: [9] 97 % of control | [10] 97 % of control | [11] 98 % of control

CC(=O)Oc1cccc(/C=C/[N+](=O)[O-])c1
inactive: endpoint: mean survival time, dose: 75.0 mg/kg/injection, schedule: Q01DX001 (ip), vehicle: steriod suspending solution 97 % of control | endpoint: mean survival time, dose: 150.0 mg/kg/injection, schedule: Q01DX001 (ip), vehicle: steriod suspending solution 97 % of control | endpoint: mean survival time, dose: 300.0 mg/kg/injection, schedule: Q01DX001 (ip), vehicle: steriod suspending solution 110 % of control

O=NCC1(Cl)CC2C=CC1C2 (stereo unspecified)
inactive: endpoint: mean survival time, dose: 6.25 mg/kg/injection, schedule: Q01DX009 (ip), vehicle: saline with Tween-80 97 % of control | endpoint: mean survival time, dose: 12.5 mg/kg/injection, schedule: Q01DX009 (ip), vehicle: saline with Tween-80 98 % of control | endpoint: mean survival time, dose: 25.0 mg/kg/injection, schedule: Q01DX009 (ip), vehicle: saline with Tween-80 98 % of control

O=c1[nH]c2ccccc2c2ccccc12
inactive: [14] 98 % of control | [15] 90 % of control | [16] 102 % of control

CCOC(=O)c1c(C)c2c(n1C)CC/C(=C\N1CCN(c3ccccc3)CC1)C2=O
inactive: [17] 93 % of control | [18] 89 % of control | [19] 86 % of control

Nc1nc2cc[nH]c2c(=O)[nH]1
inactive: [20] 94 % of control | [21] 97 % of control | [22] 92 % of control

CS(=O)(=O)N1CCCCC1
inactive: [4] 100 % of control

Cc1ccc(NC(=O)COc2cc(Cl)c(Cl)cc2Cl)cc1C
inactive: [1] 102 % of control | [2] 93 % of control | [3] 96 % of control

O=Cc1[nH]c(=S)[nH]c(=O)c1Cc1cccc2ccccc12
inactive: [1] 96 % of control | [2] 95 % of control | [3] 102 % of control

O=S1(=O)CCCCN1c1ccccn1
inactive: [17] 102 % of control | [18] 94 % of control | [19] 105 % of control

C=C1CCCCC1C(C(=O)O)(c1ccccc1)c1ccccc1 (stereo unspecified)
inactive: [1] 102 % of control | [2] 102 % of control | [3] 100 % of control

CN=C(N)/N=C(\N)C(Cl)(Cl)Cl
inactive: endpoint: mean survival time, dose: 100.0 mg/kg/injection, schedule: Q01DX001 (ip), vehicle: saline 111 % of control | endpoint: mean survival time, dose: 200.0 mg/kg/injection, schedule: Q01DX001 (ip), vehicle: saline 86 % of control | endpoint: mean survival time, dose: 400.0 mg/kg/injection, schedule: Q01DX001 (ip), vehicle: saline 90 % of control

O=C(c1ccccc1)c1cn(C2CCCCC2)c(-c2ccccc2)c1NC1CCCCC1
inactive: [1] 87 % of control | [2] 87 % of control | [3] 94 % of control

CC12CC(c3ccccc3)C(C)(C(c3ccccc3)=C1c1ccccc1)C2(O)c1ccccc1 (stereo unspecified)
inactive: [17] 94 % of control | [18] 86 % of control | [19] 94 % of control
